This note sets out measurements from patent publication US12649727B2, “EFGR inhibitor, preparation method therefor and application thereof” (Abbisko Therapeutics Co., Ltd, priority 2020, dated 2026).

SMILES strings stand for the structures.

What all share (assay type): cell-based
The target of experiment [1] is Ba/F3 EGFR-V769_D770insASV (Homo sapiens, UniProt P00533, DUP767-769, cells depend on it). The experiment in a line: Proliferation experiment of Ba/F3 cell line, EGFR-V769_D770insASV (CellTiter-Glo). The note with it: cultured for 72 hrs with compound, CTG analysis, read-out: Ba/F3 EGFR-V769_D770insASV IC50. In a few lines:
(§1)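 […] Ba/F3 cells expressing EGFR insertion mutants treated 72 h at 37 °C with 9 concentrations, 3.16-fold dilutions, top 10 μM, 0.1% DMSO, in triplicate. Viability by CellTiter-Glo luminescence with T0 reference plate; IC50 (nM) from non-linear dose-response fit.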

The subject of the next experiment is A431 (EGFR-WT). Description: Proliferation experiment, A431 cell line (CellTiter-Glo). Conditions: Homo sapiens, A-431; A431 cells, cultured for 72 hrs with compound, CTG analysis.
The target in experiment [2] is Ba/F3 EGFR-D770-N771ins_SVD (Homo sapiens, UniProt P00533, DUP768-770, cells depend on it). The experiment in a line: Proliferation experiment of Ba/F3 cell line, EGFR-D770-N771ins_SVD (CellTiter-Glo). Conditions: cultured for 72 hrs with compound, CTG analysis, read-out: Ba/F3 EGFR-D770-N771ins_SVD IC50. A digest of the protocol: as §1
Sequence of Ba/F3 EGFR-D770-N771ins_SVD (P00533 with tags, fused parts or gaps DUP768-770): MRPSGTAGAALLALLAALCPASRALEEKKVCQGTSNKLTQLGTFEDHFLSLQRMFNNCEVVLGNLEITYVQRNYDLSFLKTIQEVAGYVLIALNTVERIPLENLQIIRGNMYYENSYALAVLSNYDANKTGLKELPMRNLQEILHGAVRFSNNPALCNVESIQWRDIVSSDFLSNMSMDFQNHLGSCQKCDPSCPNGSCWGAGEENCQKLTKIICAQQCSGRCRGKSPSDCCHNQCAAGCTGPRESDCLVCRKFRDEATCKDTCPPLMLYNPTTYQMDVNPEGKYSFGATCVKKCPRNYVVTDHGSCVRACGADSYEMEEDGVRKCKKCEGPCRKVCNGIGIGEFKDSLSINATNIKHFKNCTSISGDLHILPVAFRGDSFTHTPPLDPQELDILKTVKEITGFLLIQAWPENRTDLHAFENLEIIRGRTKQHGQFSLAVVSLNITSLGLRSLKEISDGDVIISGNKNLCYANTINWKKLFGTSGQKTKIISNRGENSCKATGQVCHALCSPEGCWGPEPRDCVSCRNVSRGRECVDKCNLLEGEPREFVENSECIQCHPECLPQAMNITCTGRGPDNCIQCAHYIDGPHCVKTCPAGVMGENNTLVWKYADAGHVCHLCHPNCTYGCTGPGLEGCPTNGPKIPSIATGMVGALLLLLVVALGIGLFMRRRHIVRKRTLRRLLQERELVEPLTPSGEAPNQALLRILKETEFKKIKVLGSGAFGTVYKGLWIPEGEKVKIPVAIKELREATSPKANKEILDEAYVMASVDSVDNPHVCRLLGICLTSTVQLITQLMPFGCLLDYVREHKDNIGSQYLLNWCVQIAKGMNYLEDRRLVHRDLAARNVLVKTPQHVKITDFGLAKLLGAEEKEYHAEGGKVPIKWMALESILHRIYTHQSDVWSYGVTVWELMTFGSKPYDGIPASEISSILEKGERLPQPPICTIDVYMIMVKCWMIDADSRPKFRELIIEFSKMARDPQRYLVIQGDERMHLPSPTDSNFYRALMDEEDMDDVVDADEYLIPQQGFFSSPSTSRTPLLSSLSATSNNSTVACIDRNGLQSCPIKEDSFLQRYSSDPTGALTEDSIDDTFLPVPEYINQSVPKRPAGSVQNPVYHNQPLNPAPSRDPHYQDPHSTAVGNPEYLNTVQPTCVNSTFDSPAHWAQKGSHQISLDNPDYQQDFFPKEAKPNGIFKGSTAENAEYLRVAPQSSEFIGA

Sequence of Ba/F3 EGFR-V769_D770insASV (P00533 with tags, fused parts or gaps DUP767-769): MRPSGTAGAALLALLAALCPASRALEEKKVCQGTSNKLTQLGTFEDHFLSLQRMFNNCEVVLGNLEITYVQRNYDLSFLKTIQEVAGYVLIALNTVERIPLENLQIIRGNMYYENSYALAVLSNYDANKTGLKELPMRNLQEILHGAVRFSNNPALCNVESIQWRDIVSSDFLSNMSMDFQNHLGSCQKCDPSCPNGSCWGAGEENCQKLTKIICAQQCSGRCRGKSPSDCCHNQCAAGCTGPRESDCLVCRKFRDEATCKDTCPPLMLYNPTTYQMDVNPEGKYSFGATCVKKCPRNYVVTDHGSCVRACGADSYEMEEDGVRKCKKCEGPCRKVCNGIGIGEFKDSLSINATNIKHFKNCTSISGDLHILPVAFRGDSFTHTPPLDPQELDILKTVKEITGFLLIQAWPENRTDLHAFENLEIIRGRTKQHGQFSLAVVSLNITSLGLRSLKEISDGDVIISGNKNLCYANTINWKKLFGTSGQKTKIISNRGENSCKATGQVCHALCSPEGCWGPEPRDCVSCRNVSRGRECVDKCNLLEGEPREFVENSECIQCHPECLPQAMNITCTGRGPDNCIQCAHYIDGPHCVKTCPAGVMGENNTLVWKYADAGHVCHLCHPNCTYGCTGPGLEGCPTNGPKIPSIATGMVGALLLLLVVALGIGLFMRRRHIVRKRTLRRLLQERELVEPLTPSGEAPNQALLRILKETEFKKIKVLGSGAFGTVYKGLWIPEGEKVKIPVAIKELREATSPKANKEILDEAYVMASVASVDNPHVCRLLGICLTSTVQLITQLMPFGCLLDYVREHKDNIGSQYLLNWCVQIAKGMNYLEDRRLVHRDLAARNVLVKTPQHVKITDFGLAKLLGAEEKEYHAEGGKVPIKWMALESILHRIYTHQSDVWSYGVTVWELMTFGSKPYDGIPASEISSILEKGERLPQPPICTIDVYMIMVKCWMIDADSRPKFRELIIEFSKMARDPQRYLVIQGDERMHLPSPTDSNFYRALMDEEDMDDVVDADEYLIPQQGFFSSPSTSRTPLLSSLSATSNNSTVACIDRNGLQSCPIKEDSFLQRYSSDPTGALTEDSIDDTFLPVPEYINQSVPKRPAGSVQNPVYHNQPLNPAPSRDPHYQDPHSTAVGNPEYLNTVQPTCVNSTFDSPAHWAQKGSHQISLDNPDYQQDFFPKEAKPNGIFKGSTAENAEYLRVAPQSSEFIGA

Regarding `C=CC(=O)Nc1cc2c(Nc3ccnc(-c4c(F)cccc4F)c3)ncnc2cc1O[C@@H]1CCN(C)C1` [Example 76, (R)-N-(4-((2-(2,6-difluorophenyl)pyridin-4-yl)amino)-7-((1-methylpyrrolidin-3-yl)oxy)quinazolin-6-yl)acrylamide], the values for the GI50 in experiment [1] and in experiment [2] were 6.4 nM and 2.9 nM, respectively. The IC50 with A431 (EGFR-WT) was found to be 73.2 nM.

On to `C=CC(=O)Nc1cc2c(Nc3ccnc(-c4ccc(F)cc4F)c3)ncnc2cc1OCCN1CCOCC1` [Example 77, N-(4-((2-(2,4-difluorophenyl)pyridin-4-yl)amino)-7-(2-morpholinoethoxy)quinazolin-6-yl)acrylamide], for which the values for the GI50 in experiment [1] and in experiment [2] were 4.4 nM and 1.6 nM, respectively. Further, in the experiment with A431 (EGFR-WT), the IC50 came out at 317 nM.

With `C=CC(=O)Nc1cc2c(Nc3ccnc(-c4ccc(F)cc4F)c3)ncnc2cc1OCCCN1CCOCC1` [Example 78, N-(4-((2-(2,4-difluorophenyl)pyridin-4-yl)amino)-7-(3-morpholinopropoxy)quinazolin-6-yl)acrylamide], the GI50 in experiment [1] stood at 3.8 nM; in experiment [2] it was 3.2 nM. In the experiment on A431 (EGFR-WT), the IC50 was determined as 41 nM.

Take `C=CC(=O)Nc1cc2c(Nc3ccnc(-c4ccc(F)cc4F)c3)ncnc2cc1OCCCN1CCN(C)CC1` [Example 79, N-(4-((2-(2,4-difluorophenyl)pyridin-4-yl)amino)-7-(3-(4-methylpiperazin-1-yl)propoxy)quinazolin-6-yl)acrylamide]: the GI50 in experiment [1] worked out at 6.8 nM; in experiment [2], 4.2 nM. Further, the IC50 with A431 (EGFR-WT) amounted to 32.1 nM.

As to `C=CC(=O)Nc1cc2c(Nc3ccnc(-c4ccc(F)cc4F)c3)ncnc2cc1O[C@@H]1CCN(C)C1` [Example 81, (R)-N-(4-((2-(2,4-difluorophenyl)pyridin-4-yl)amino)-7-((1-methylpyrrolidin-3-yl)oxy)quinazolin-6-yl)acrylamide], the GI50 in experiment [1] came out at 5.2 nM; in experiment [2], 3.1 nM. In addition, the concentration for half-maximal inhibition (IC50) in the experiment on A431 (EGFR-WT) was determined as 122 nM.

For the compound `C=CC(=O)Nc1cc2c(Nc3ccnc(-c4ccccc4F)c3)ncnc2cc1OC` [Example 82, N-(4-((2-(2-fluorophenyl)pyridin-4-yl)amino)-7-methoxyquinazolin-6-yl)acrylamide], the GI50 turned out to be 2.6 nM in experiment [1] and 1.7 nM in experiment [2]. In addition, in the experiment with A431 (EGFR-WT), the IC50 was determined as 624 nM.

For `C=CC(=O)Nc1cc2c(Nc3ccnc(-c4ccccc4F)c3)ncnc2cc1OCC` [Example 83, N-(4-((2-(2-fluorophenyl)pyridin-4-yl)amino)-7-ethoxyquinazolin-6-yl)acrylamide], the GI50 in experiment [1] was determined as 7.5 nM; in experiment [2] it was 3.3 nM. Besides, the IC50 in the experiment with A431 (EGFR-WT) was found to be 820 nM.

Turning to `C=C(F)C(=O)Nc1cc2c(Nc3ccnc(-c4ccccc4F)c3)ncnc2cc1OC` [Example 86, 2-fluoro-N-(4-((2-(2-fluorophenyl)pyridin-4-yl)amino)-7-methoxyquinazolin-6-yl)acrylamide], the figures for the GI50 in experiment [1] and in experiment [2] were 5.1 nM and 3.3 nM, respectively. The IC50 in the experiment on A431 (EGFR-WT) is 316 nM.

As to `C=C(F)C(=O)Nc1cc2c(Nc3ccnc(-c4ccccc4F)c3)ncnc2cc1OCC` [Example 87, 2-fluoro-N-(4-((2-(2-fluorophenyl)pyridin-4-yl)amino)-7-ethoxyquinazolin-6-yl)acrylamide], the figures for the GI50 in experiment [1] and in experiment [2] were 10.7 nM and 4.1 nM, respectively. In the experiment on A431 (EGFR-WT), the IC50 turned out to be 487 nM.

For the compound `C=C(F)C(=O)Nc1cc2c(Nc3ccnc(-c4ccccc4F)c3)ncnc2cc1OCC(F)(F)F` [Example 88, 2-fluoro-N-(4-((2-(2-fluorophenyl)pyridin-4-yl)amino)-7-(2,2,2-trifluoroethoxy)quinazolin-6-yl)acrylamide], the GI50 is 25.5 nM in experiment [1] and 10.1 nM in experiment [2]. Moreover, in the experiment with A431 (EGFR-WT), the IC50 came out at 687 nM.

Turning to `C=C(F)C(=O)Nc1cc2c(Nc3ccnc(-c4ccccc4F)c3)ncnc2cc1OC1CC1` [Example 90, N-(7-cyclopropoxy-4-((2-(2-fluorophenyl)pyridin-4-yl)amino)quinazolin-6-yl)-2-fluoroacrylamide], the values for the GI50 in experiment [1] and in experiment [2] were 35.8 nM and 11.9 nM, respectively. The IC50 in the experiment with A431 (EGFR-WT) was 461 nM.

Take `C=C(F)C(=O)Nc1cc2c(Nc3ccnc(-c4ccccc4F)c3)ncnc2cc1OCC1CC1` [Example 91, N-(7-(cyclopropylmethoxy)-4-((2-(2-fluorophenyl)pyridin-4-yl)amino)quinazolin-6-yl)-2-fluoroacrylamide]: the GI50 in experiment [1] was 32.7 nM; in experiment [2] it was 12.7 nM. In the experiment on A431 (EGFR-WT), the IC50 was 655 nM.

Consider `C=CC(=O)Nc1cc2c(Nc3ccnc(-c4ccccc4F)c3)ncnc2cc1F` [Example 92, N-(7-fluoro-4-((2-(2-fluorophenyl)pyridin-4-yl)amino)quinazolin-6-yl)acrylamide], for which the results for the GI50 in experiment [1] and in experiment [2] were 16.7 nM and 30.5 nM, respectively. Besides, the IC50 in the experiment on A431 (EGFR-WT) came to 355 nM.

As to `C=C(F)C(=O)Nc1cc2c(Nc3ccnc(-c4ccccc4F)c3)ncnc2cc1F` [Example 93, 2-fluoro-N-(7-fluoro-4-((2-(2-fluorophenyl)pyridin-4-yl)amino)quinazolin-6-yl)acrylamide], the figures for the GI50 in experiment [1] and in experiment [2] were 51.1 nM and 14.5 nM, respectively. The IC50 in the experiment with A431 (EGFR-WT) worked out at 877 nM.

As to `C=CC(=O)Nc1cc2c(Nc3ccnc(-c4ccccc4F)c3)ncnc2cc1N1CCOCC1` [Example 94, N-(4-((2-(2-fluorophenyl)pyridin-4-yl)amino)-7-morpholinoquinazolin-6-yl)acrylamide], the GI50 was 1.9 nM in experiment [1] and 1.4 nM in experiment [2]. Besides, the IC50 in the experiment with A431 (EGFR-WT) worked out at 2330 nM.

As for `C=C(F)C(=O)Nc1cc2c(Nc3ccnc(-c4ccccc4F)c3)ncnc2cc1N1CCOCC1` [Example 95, 2-fluoro-N-(4-((2-(2-fluorophenyl)pyridin-4-yl)amino)-7-morpholinoquinazolin-6-yl)acrylamide], the GI50 is 8.3 nM in experiment [1] and 3.3 nM in experiment [2]. For the same compound, the IC50 with A431 (EGFR-WT) was determined as 1820 nM.

Take `C=CC(=O)Nc1cc2c(Nc3ccnc(-c4ccccc4F)c3)ncnc2cc1N1CCC(N2CCOCC2)CC1` [Example 98, N-(4-((2-(2-fluorophenyl)pyridin-4-yl)amino)-7-(4-morpholinopiperidin-1-yl)quinazolin-6-yl)acrylamide]: the GI50 in experiment [1] was determined as 6.3 nM; in experiment [2], 2 nM. Moreover, the IC50 in the experiment on A431 (EGFR-WT) worked out at 1530 nM.

`C=CC(=O)Nc1cc2c(Nc3ccnc(-c4ccccc4F)c3)ncnc2cc1N1CCC(N2CCN(C)CC2)CC1` [Example 99, N-(4-((2-(2-fluorophenyl)pyridin-4-yl)amino)-7-(4-(4-methylpiperazin-1-yl)piperidin-1-yl)quinazolin-6-yl)acrylamide]: the results for the GI50 in experiment [1] and in experiment [2] were 6.1 nM and 2.8 nM, respectively. Moreover, in the experiment on A431 (EGFR-WT), the IC50 worked out at 315 nM.

With `C=C(F)C(=O)Nc1cc2c(Nc3ccnc(-c4ccccc4F)c3)ncnc2cc1N1CCC(O)CC1` [Example 100, 2-fluoro-N-(4-((2-(2-fluorophenyl)pyridin-4-yl)amino)-7-(4-hydroxypiperidin-1-yl)quinazolin-6-yl)acrylamide], the GI50 was found to be 14.8 nM in experiment [1] and 4.4 nM in experiment [2]. For the same compound, the IC50 with A431 (EGFR-WT) worked out at 225 nM.

In the case of `C=C(F)C(=O)Nc1cc2c(Nc3ccnc(-c4ccccc4F)c3)ncnc2cc1N1CCC(N2CCOCC2)CC1` [Example 102, 2-fluoro-N-(4-((2-(2-fluorophenyl)pyridin-4-yl)amino)-7-(4-morpholinopiperidin-1-yl)quinazolin-6-yl)acrylamide], the GI50 in experiment [1] was 17 nM; in experiment [2], 6.1 nM. Besides, the IC50 with A431 (EGFR-WT) was 733 nM.

For `C=C(F)C(=O)Nc1cc2c(Nc3ccnc(-c4ccccc4F)c3)ncnc2cc1N1CCC(N2CCN(C)CC2)CC1` [Example 103, 2-fluoro-N-(4-((2-(2-fluorophenyl)pyridin-4-yl)amino)-7-(4-(4-methylpiperazin-1-yl)piperidin-1-yl)quinazolin-6-yl)acrylamide], the GI50 in experiment [1] was 6.1 nM; in experiment [2], 30 nM. Moreover, the IC50 with A431 (EGFR-WT) is 15 nM.

In the case of `C=C(F)C(=O)Nc1cc2c(Nc3ccnc(-c4ccccc4F)c3)ncnc2cc1N1CCC1` [Example 105, N-(7-(azetidin-1-yl)-4-((2-(2-fluorophenyl)pyridin-4-yl)amino)quinazolin-6-yl)-2-fluoroacrylamide], the values for the GI50 in experiment [1] and in experiment [2] were 35 nM and 12.7 nM, respectively. In addition, the IC50 with A431 (EGFR-WT) was found to be 2500 nM.

Turning to `C=CC(=O)Nc1cc2c(Nc3ccnc(-c4ccccc4F)c3)ncnc2cc1O[C@@H]1CCN(CCOC)C1` [Example 111, (R)—N-(4-((2-(2-fluorophenyl)pyridin-4-yl)amino)-7-((1-(2-methoxyethyl)pyrrolidin-3-yl)oxy)quinazolin-6-yl)acrylamide], the GI50 in experiment [1] was determined as 3.4 nM; in experiment [2], 1.8 nM. In addition, the IC50 in the experiment on A431 (EGFR-WT) was 84.6 nM.

As for `C=CC(=O)Nc1cc2c(Nc3ccnc(-c4ccccc4F)c3)ncnc2cc1O[C@@H]1CCN(CCO)C1` [Example 112, (R)—N-(4-((2-(2-fluorophenyl)pyridin-4-yl)amino)-7-((1-(2-hydroxyethyl)pyrrolidin-3-yl)oxy)quinazolin-6-yl)acrylamide], the values for the GI50 in experiment [1] and in experiment [2] were 3.6 nM and 1.4 nM, respectively. Moreover, in the experiment with A431 (EGFR-WT), the IC50 came out at 89.3 nM.

Take `C=CC(=O)Nc1cc2c(Nc3ccnc(-c4ccccc4F)c3)ncnc2cc1O[C@@H]1CCN(C2CC2)C1` [Example 113, (R)—N-(7-((1-cyclopropylpyrrolidin-3-yl)oxy)-4-((2-(2-fluorophenyl)pyridin-4-yl)amino)quinazolin-6-yl)acrylamide]: the results for the GI50 in experiment [1] and in experiment [2] were 11.6 nM and 3.9 nM, respectively. Also, the IC50 in the experiment with A431 (EGFR-WT) turned out to be 173 nM.
